Experimental data reported in US7091185B2, “Periodic antimicrobial peptides” (Dow Global Technologies Inc., priority 2003, dated 2006).
Where two headings read alike, the source gives them in different places. Where no end group is shown, it is not given here.

Experiments:
Staph. aureus ATCC 6538 = assay: HMARQ biocidal kill activity; assay type: cell-based; settings: Staph. aureus ATCC 6538 (gram+)
Procedure, shortened: (§1)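 Values are biocide ppm (μg/mL) needed for 3.5 log reduction relative to untreated controls after 15 min or 24 h exposure. Organisms were added to biocide-containing sample matrix (200–300 μL, mixed by vortex), then enumerated by most-probable-number 1:10 dilution series in TSB/resazurin.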

P. aeruginosa ATCC 15442 = assay: HMARQ biocidal kill activity; assay type: cell-based; settings: P. aeruginosa ATCC 15442 (gram−)
Procedure, shortened: as §1

[1] = test system: S. aureus (methicillin resistant) ATCC 33591; settings: ATCC 33591
P. aeruginosa ATCC 10145 = settings: ATCC 10145
E. coli ATCC 2592 = settings: ATCC 2592
Cr. Neoformans 32045 = assay type: cell-based
Method: (§2) The MIC and IC50 values were determined by a broth microdilution method according to guidelines of the National Committee for Clinical Laboratory Standard as follows: In 96-well tissue culture plates, a fixed volume of bacterial suspension in 2× broth (as defined below) was added to the mixtures or individual compounds dispensed at concentrations varying from 1,000 to 1 μg/ml derived from serial two-fold dilutions in sterile water. The bacteria tested were P. aeruginosa American Type Culture Collection Number (ATCC) 10145, E. coli ATCC 2592, and S. aureus (methicillin reseistant) ATTC 33591.
(§3) The plates were incubated overnight, and the relative percent growth determined by optical density at 620 nm (OD620) using a TITERTEK MULTISKAN PLUS™. […] IC50 values were calculated using a sigmoidal curve fitting software program (GRAPHPAD,™ ISI Software,™ San Diego, Calif.). All samples were tested in duplicate and each assay was repeated at least twice. In the following table, KFAK is the repeat unit and multimers of KFAK were tested. IC50 and MIC are reported in μg/ml.
(§4) Because the antibacterial activity of the periodic peptides was so promising, further experiments were performed to determine if the periodic peptides also had antifungal activity. The experimental design was similar to that above, with accommodation made for fungal growth requirements, including the use of Sabouraud Dextrose Broth (SDB) and Sabouraud Dextrose Agar (SDA) slants.

C. albicans 10231 = assay type: cell-based; settings: 10231
Method: as §2, §3, §4

Red blood cells (RBC) = assay: Red blood cell toxicity; assay type: cell-based
Red blood cell toxicity = assay type: cell-based; settings: red blood cells (RBC)
HeLa cell line = assay: HeLa MTS cellular reduction toxicity assay; assay type: cell-based; settings: for TX50: 24 h, MTS
Method: The RBC protocol was from Blondelle (2000) and is described generally as follows: The toxicity toward the HeLa cell line was determined using a MTS (3-(4-5-dimethylthiazol-2-yl)-5-(3carboxymethoxyphenyl)-2-(4-sulfophenyl)-2H-tetrazolium, sodium salt) cellular reduction assay. MTS (2 mg/mL) was prepared in Dulbecco PBS (pH 7.35), filtered, aliquoted and stored at minus 20° C. In 96 well flat bottomed plates, cell suspensions (250 μL of 6×10^4 cell/mL in each well) were incubated for 48 h at 37° C. (5% CO2 incubator). The peptides (50 μL) were then added to the cell monolayer (following aspiration of the media from each well and addition of 50 μL of Dulbecco's Modified Eagles Medium) at varying concentrations derived from serial 2-fold dilutions, and the plates incubated for 24 h at 37° C. (5% CO2 incubator). Proliferation was then determined by adding a solution of phenazine methosulfate (PMS: 0.92 mg/mL in DPBS) to MTS at a 1:20 ration just prior to the assay. Twenty microliters MTS-PMS solution were added to each well and the plates incubated for 1 h at 37° C. (5% CO2 incubator). The relative percent toxicity was determined by comparing the absorbance at 490 nm of each peptide to the absorbance of cells without peptide. The TX50 (concentration required for 50% toxicity) was calculated using a sigmoidal curve fitting software (Graphpad Prism).

[2] = RBCs, concentration required for 50% toxicity, read-out: TX50

Substance | ppm needed for 3.5 log kill at 15 min (Staph. aureus ATCC 6538) | ppm needed for 3.5 log kill at 24 hr (Staph. aureus ATCC 6538) | ppm needed for 3.5 log kill at 15 min (P. aeruginosa ATCC 15442) | ppm needed for 3.5 log kill at 24 hr (P. aeruginosa ATCC 15442) | IC50 [1] | MIC [1] | IC50 (P. aeruginosa ATCC 10145) | MIC (P. aeruginosa ATCC 10145) | IC50 (E. coli ATCC 2592) | MIC (E. coli ATCC 2592) | IC50 (Cr. Neoformans 32045) | MIC (Cr. Neoformans 32045) | IC50 (C. albicans 10231) | MIC (C. albicans 10231) | % kill at 250 μg/ml (Red blood cells (RBC)) | HC50 at 24 h (Red blood cell toxicity) | % kill at 500 μg/ml (HeLa cell line) | TX50 (HeLa cell line) | HC50 at 24 h (Red blood cell toxicity; [2])
H-FAKKFAKKFAKKFAKKFAKKFAKK-OH [FAKK (6), FAKK FAKK FAKK FAKK FAKK FAKK] | >500 ppm | 250 ppm | >500 ppm | 16 ppm | 108 µg/mL | >250 µg/mL | 21 µg/mL | 62 µg/mL | 11 µg/mL | 17 to 32 µg/mL | 7.6 µg/mL | 16 to 32 µg/mL | 110 µg/mL | 125 to 250 µg/mL | 7% | > 500 µg/mL | 28.3% | 359 µg/mL | –
FKAFKAFKAFKAFKAFKA [FKA (6), FKA FKA FKA FKA FKA FKA] | 4 ppm | 500 ppm | 8 ppm | 8 ppm | >500 µg/mL | >500 µg/mL | 79 µg/mL | 100 µg/mL | 29 µg/mL | 32 to 62 µg/mL | 2.8 µg/mL | 4 to 8 µg/mL | 208 µg/mL | 250 to 500 µg/mL | 28% | – | 110.8% | >500 µg/mL | 496 µg/mL
KFAFKFAFKFAFKFAFKFAFKFAFKFAF [KFAF (7), KFAF KFAF KFAF KFAF KFAF KFAF KFAF] | >500 ppm | 125 ppm | 63 ppm | 63 ppm | >500 µg/mL | >500 µg/mL | 250 µg/mL | >250 µg/mL | >1000 µg/mL | >1000 µg/mL | 67 µg/mL | 125 to 250 µg/mL | >500 µg/mL | >500 µg/mL | 4% | – | 76.8% | >500 µg/mL | > 500 µg/mL
KFKKFKKFKKFKKFKKFKKFKKFKKFK [KFK (9), KFK KFK KFK KFK KFK KFK KFK KFK KFK] | >500 ppm | 500 ppm | >500 ppm | 63 ppm | 92 µg/mL | 125 to 250 µg/mL | 68 µg/mL | 125 µg/mL | 14 µg/mL | 16 to 32 µg/mL | 39 µg/mL | 62 to 125 µg/mL | 194 µg/mL | 250 to 500 µg/mL | −6% | – | 80.7% | >500 µg/mL | > 500 µg/mL
H-KFKKFKKFKKFKKFKKFKKFKKFK-OH [KFK (8), KEK KFK KFK KFK KFK KFK KFK KFK] | >500 ppm | 500 ppm | >500 ppm | >125 ppm | 72 µg/mL | >250 µg/mL | 145 µg/mL | 250 µg/mL | 20 µg/mL | 32 to 62 µg/mL | 25 µg/mL | 40 to 62 µg/mL | 113 µg/mL | 125 to 250 µg/mL | −6% | – | 84.2% | >500 µg/mL | > 500 µg/mL
LKLKLKLKLKLKLKLKLKLK [LK (10), LK LK LK LK LK LK LK LK LK LK] | 16 or less ppm | 16 or less ppm | 8 ppm | – | 29 µg/mL | 125 to 250 µg/mL | 47 µg/mL | 125 µg/mL | 127 µg/mL | 150 to 250 µg/mL | 3.0 µg/mL | 62 to 125 µg/mL | 187 µg/mL | 250 to 500 µg/mL | 27% | – | 65.0% | >500 µg/mL | > 500 µg/mL
H-KFKKFKKFKKFKKFKKFKKFKKFKKFKKFK-OH [KFK (10), KFK KFK KFK KFK KFK KFK KEK KFK KFK KFK] | 4 ppm | 500 ppm | 8 ppm | 8 ppm | 59 µg/mL | >250 µg/mL | 31 µg/mL | 62 µg/mL | 10 µg/mL | 12 to 16 µg/mL | 30 µg/mL | 40 to 62 µg/mL | 104 µg/mL | 125 to 250 µg/mL | 3% | – | 56.8% | >500 µg/mL | > 500 µg/mL
